Laboratory results: the supplement of paper PMC6045584
± gives the standard deviation of the averaged measurements.

Legend:
FLAVOPIRIDOL = compound: CN1CC[C@H](c2c(O)cc(O)c3c(=O)cc(-c4ccccc4Cl)oc23)[C@H](O)C1 [FLAVOPIRIDOL]; experiment: surviving fraction relative to DMSO-only wells; higher = less growth inhibition; details: exposure time: 5 days
In short: (§1)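 Inhibitors were tested at 0.5, 1, 5, 10, 50, 100, 500 and 1000 nM, applied continuously for five days beginning 24 hours after log-phase tumour cells were seeded at 250–500 per well in 384-well plates. CellTiter-Glo luminescence served as the viability measure, expressed as surviving fraction against the median of DMSO-only wells. Each line, screened three times, was kept only with replicate Pearson r >0.7 and median Z' >0.3.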

SALINOMYCIN = compound: CC[C@@H](C(=O)[C@@H](C)[C@@H](O)[C@H](C)[C@@H]1O[C@@H]([C@@H](CC)C(=O)O)CC[C@@H]1C)[C@H]1O[C@]2(C=C[C@@H](O)[C@]3(CC[C@@](C)([C@H]4CC[C@](O)(CC)[C@H](C)O4)O3)O2)[C@H](C)C[C@@H]1C [SALINOMYCIN]; experiment: as above; details: exposure time: 5 days
In short: as §1

Row | Test System | surviving fraction (FLAVOPIRIDOL; 0.5 nM) | surviving fraction (FLAVOPIRIDOL; 1 nM) | surviving fraction (FLAVOPIRIDOL; 5 nM) | surviving fraction (FLAVOPIRIDOL; 10 nM) | surviving fraction (FLAVOPIRIDOL; 50 nM) | surviving fraction (FLAVOPIRIDOL; 100 nM) | surviving fraction (FLAVOPIRIDOL; 500 nM) | surviving fraction (FLAVOPIRIDOL; 1000 nM) | surviving fraction (SALINOMYCIN; 0.5 nM) | surviving fraction (SALINOMYCIN; 1 nM) | surviving fraction (SALINOMYCIN; 5 nM) | surviving fraction (SALINOMYCIN; 10 nM) | surviving fraction (SALINOMYCIN; 50 nM) | surviving fraction (SALINOMYCIN; 100 nM) | surviving fraction (SALINOMYCIN; 500 nM) | surviving fraction (SALINOMYCIN; 1000 nM)
1 | SG27 HEADNECK | 1.16 ± 0.11 | 1.04 ± 0.04 | 0.987 ± 0.12 | 1.02 ± 0.3 | 0.844 ± 0.087 | 0.368 ± 0.063 | 0.0753 ± 0.047 | 0.071 ± 0.032 | 1.03 ± 0.099 | 1.09 ± 0.17 | 0.997 ± 0.11 | 0.921 ± 0.094 | 1.12 ± 0.08 | 1.1 ± 0.074 | 0.249 ± 0.028 | 0.184 ± 0.015
2 | SG28 HEADNECK | 1.11 ± 0.096 | 1.1 ± 0.023 | 1.02 ± 0.081 | 1.04 ± 0.099 | 0.594 ± 0.089 | 0.0495 ± 0.0064 | 0.0315 ± 0.00071 | 0.032 ± 0.0028 | 1.05 ± 0.098 | 1.08 ± 0.06 | 1.07 ± 0.16 | 0.835 ± 0.1 | 0.835 ± 0.077 | 0.762 ± 0.046 | 0.498 ± 0.068 | 0.323 ± 0.037
3 | SG31 HEADNECK | 1.51 ± 0.26 | 1.23 ± 0.055 | 0.964 ± 0.096 | 0.988 ± 0.053 | 0.483 ± 0.057 | 0.147 ± 0.038 | 0.0443 ± 0.024 | 0.027 ± 0.0046 | 1.08 ± 0.15 | 1.12 ± 0.036 | 1.07 ± 0.089 | 0.888 ± 0.097 | 0.924 ± 0.048 | 0.863 ± 0.093 | 0.413 ± 0.033 | 0.317 ± 0.047
4 | SG32 HEADNECK | 1.14 ± 0.2 | 1.28 ± 0.092 | 1.07 ± 0.24 | 0.823 ± 0.14 | 0.227 ± 0.063 | 0.048 ± 0.01 | 0.0283 ± 0.013 | 0.0237 ± 0.0046 | 0.944 ± 0.068 | 1.13 ± 0.41 | 0.951 ± 0.13 | 0.729 ± 0.054 | 0.921 ± 0.13 | 0.636 ± 0.016 | 0.133 ± 0.01 | 0.054 ± 0.0044
5 | SG43 HEADNECK | 1.04 ± 0.084 | 1.18 ± 0.081 | 0.885 ± 0.11 | 1.07 ± 0.044 | 0.812 ± 0.049 | 0.562 ± 0.12 | 0.028 ± 0.0062 | 0.033 ± 0.0076 | 0.921 ± 0.12 | 1.2 ± 0.14 | 0.776 ± 0.14 | 1.05 ± 0.13 | 0.954 ± 0.14 | 1.16 ± 0.13 | 0.459 ± 0.023 | 0.285 ± 0.11
6 | SIHA CERVIX | 1.07 ± 0.041 | 1.05 ± 0.067 | 1.1 ± 0.081 | 1.03 ± 0.032 | 0.714 ± 0.045 | 0.336 ± 0.056 | 0.0243 ± 0.0015 | 0.023 ± 0.001 | 0.875 ± 0.013 | 0.878 ± 0.011 | 0.935 ± 0.073 | 0.967 ± 0.047 | 0.9557 ± 0.0072 | 0.928 ± 0.052 | 0.513 ± 0.038 | 0.419 ± 0.014
7 | SJSA1 BONE | 0.135 ± 0.0078 | 0.272 ± 0.042 | 1.71 ± 0.2 | 0.209 ± 0.011 | 0.0583 ± 0.0059 | 1.74 ± 0.06 | 1.64 ± 0.076 | 0.776 ± 0.074 | 1 ± 0.033 | 0.992 ± 0.011 | 1.02 ± 0.041 | 1 ± 0.033 | 1.02 ± 0.023 | 0.966 ± 0.023 | 0.404 ± 0.041 | 0.27 ± 0.043
8 | SKBR3 BREAST | 1.15 ± 0.074 | 1.0877 ± 0.00058 | 1.05 ± 0.022 | 1.06 ± 0.092 | 0.541 ± 0.051 | 0.207 ± 0.035 | 0.032 ± 0.015 | 0.0233 ± 0.0031 | 1 ± 0.13 | 1.09 ± 0.2 | 0.927 ± 0.12 | 0.997 ± 0.051 | 1.05 ± 0.12 | 0.98 ± 0.17 | 0.238 ± 0.025 | 0.109 ± 0.015
9 | SNU475 LIVER | 1.05 ± 0.041 | 1 ± 0.032 | 1.09 ± 0.015 | 1.07 ± 0.072 | 1.02 ± 0.026 | 0.438 ± 0.048 | 0.0423 ± 0.0046 | 0.0407 ± 0.0029 | 0.974 ± 0.027 | 0.86 ± 0.032 | 0.952 ± 0.029 | 0.423 ± 0.0047 | 1.04 ± 0.036 | 0.871 ± 0.033 | 0.46 ± 0.046 | 0.31 ± 0.018
10 | SUM44 BREAST | 1.14 ± 0.35 | 1.17 ± 0.16 | 1.22 ± 0.23 | 1.22 ± 0.27 | 1.08 ± 0.24 | 0.283 ± 0.012 | 0.119 ± 0.039 | 0.104 ± 0.036 | 0.967 ± 0.033 | 0.959 ± 0.021 | 0.995 ± 0.042 | 0.992 ± 0.017 | 1.01 ± 0.033 | 1.02 ± 0.028 | 0.852 ± 0.031 | 0.748 ± 0.037
